Source: publication PMC7867324, “Design, Synthesis and Biological Evaluation of New Pyrimidine Derivatives as Anticancer Agents” (Molecules, 2021)
Structures can show the parent of a compound that is named as a salt. Where two headings read alike, the source gives them in different places.

Experiments:
colon carcinoma HT-29 = assay: In vitro proliferation assay (sulforhodamine B), HT-29; type: cell-based, human
Description: (§1) The possible antitumoral activity of these new compounds was analyzed by the effects exerted on the proliferation of five human tumor cell lines of different histotype. Therefore, the modifications on cell viability and replication determined by the treatment with each single compound were evaluated. The following human tumor cell lines triple-negative breast cancer MDA-MB231, colon carcinoma HT-29, glioblastoma multiforme U-87 MG, tongue squamous cell carcinoma CAL27 and pharynx squamous cell carcinoma FaDu were treated for 24 and 48 h with 10, 20, 30, 40, 50 and 60 μM of each single compound.
(§2) Anti-proliferative activities are reported in Table 2 (compounds 1b–g, 3) and Table 3 (compounds 2a–f) in comparison with reference compound 1a.
(§3) The following human tumor cell lines were utilized in the present study: glioblastoma multiforme U-87 MG, triple-negative breast cancer MDA-MB231, colon carcinoma HT-29, tongue squamous cell carcinoma CAL27 and pharynx squamous cell carcinoma FaDu, all of which obtained from the American Type Culture Collection (Manassas, VA, USA). In addition, human dermal fibroblast primary cultures (HF) used as control of non-transformed cells, had been previously established in our laboratory.
(§4) The cells were grown at 37 °C and 5% CO2 in Dulbecco’s modified Eagle’s medium or RPMI 1640 medium supplemented with 10% fetal bovine serum, 2 mM glutamine and 50 U/mL penicillin-streptomycin (Sigma-Aldrich).
(§5) All compounds were solubilized in dimethylsulfoxide (DMSO) (Sigma) for a 10 mM stock solution and utilized to final concentrations from 100 nM to 60 μM for 24 and 48 h. Control cells were treated with equivalent amounts of DMSO in every experiment.
(§6) To determine cytotoxicity, a sulforhodamine B colorimetric assay was performed. Cells (1.5 × 10^4) were plated in a 96-well plate, grown for 24 h and then treated with different concentrations of each compound for 24 and 48 h at 37 °C. Cells were then fixed with 50% trichloroacetic acid for 1 h at 4 °C and stained for 30 min at room temperature with 0.4% sulforhodamine B in 1% acetic acid. Excess dye was removed by washing four times with 1% acetic acid. Protein-bound dye was dissolved in 10 mM Tris (pH 10), and optical density was determined at 510 nm using a microplate reader. Each experiment was performed three times and the media was calculated.

[1] = tested on: glioblastoma multiforme U-87 MG; assay: In vitro proliferation assay (sulforhodamine B), U-87 MG; type: cell-based, human
Description: as §1, §2, §3, §4, §5, §6

[2] = tested on: triple-negative breast cancer MDA-MB231; assay: In vitro proliferation assay (sulforhodamine B), MDA-MB231; type: cell-based, human
Description: as §1, §2, §3, §4, §5, §6

[3] = tested on: tongue squamous cell carcinoma CAL27; assay: In vitro proliferation assay (sulforhodamine B), CAL27; type: cell-based, human
Description: as §1, §2, §3, §4, §5, §6

[4] = tested on: pharynx squamous cell carcinoma FaDu; assay: In vitro proliferation assay (sulforhodamine B), FaDu; type: cell-based, human
Description: as §1, §2, §3, §4, §5, §6

[5] = Cytotoxicity on normal cells (sulforhodamine B), HF; type: cell-based, human; settings: human, human dermal fibroblast primary cultures (HF), 48 h
Description: as §3, §4, §5, §6

[6] = tested on: human dermal fibroblasts (HF); assay: as above; type: cell-based
Description: as §3, §4, §5, §6

[7] = tested on: five human tumor cell lines (HT-29, U-87 MG, MDA-MB231, CAL27, FaDu); assay: In vitro proliferation assay, summary over all tested tumor cell lines; type: cell-based; settings: for EC50: Homo sapiens, all tested tumor cell lines, read-out: EC50s over the tested cell lines
Description: as §1, §2, §3, §4, §5, §6

[8] = Homo sapiens, HT-29, 24 h, 24 h
[9] = Homo sapiens, HT-29, 48 h, 48 h
[10] = Homo sapiens, MDA-MB-231, 48 h, 48 h
[11] = Homo sapiens, CAL-27, 24 h, 24 h
[12] = Homo sapiens, CAL-27, 48 h, 48 h

SMILES | EC50 (colon carcinoma HT-29; [8]) | EC50 (colon carcinoma HT-29; [9]) | EC50 ([1]; Homo sapiens, U-87 MG, 48 h) | EC50 [2, 10] | EC50 [3, 12] | CC50 at 48 h [5] | EC50 ([4]; Homo sapiens, FaDu, 48 h) | EC50 ([7]; time not given) | other results
COc1cccc(Nc2cc(N)nc(Nc3cccc(OC)c3)n2)c1 [Compound 3, N^2,N^4-bis(3-Methoxyphenyl)pyrimidine-2,4,6-triamine] | 28.2 µM | 11.7 µM | 22.9 µM | 10.2 µM | 10.4 µM | 65 µM |  |  | EC50 [3, 11]: 20.3 µM; EC50 ([4]; Homo sapiens, FaDu, 24 h): 42.1 µM; cytotoxic activity on normal somatic cells, not cytotoxic up to [6]: > 60 µM; EC50 ([7]; 48 h of treatment): ≤ 20 µM
CCN(CC)CCCNc1cc(N)nc(N(Cc2ccc(F)cc2)c2cccc(F)c2)n1 [Compound 2b, N^4-(3-(diethylamino)propyl)-N^2-(4-fluorobenzyl)-N^2-(3-fluorophenyl)pyrimidine-2,4,6-triamine] | 20.2 µM | 10.4 µM | 17.7 µM | 7.3 µM | 5.1 µM | 54.7 µM | 23.8 µM |  | 
CCN(CC)CCCNc1cc(N)nc(Nc2cccc(OC)c2)n1 [Compound 1c, N^4-(3-(Diethylamino)propyl)-N^2-(3-methoxyphenyl)pyrimidine-2,4,6-triamine] |  | 57 µM | > 60 µM | 70.5 µM | 57 µM |  | 71 µM | > 60 µM | 
CCCN(CCC)c1cc(N)nc(N(Cc2ccc(F)cc2)c2cccc(Cl)c2)n1 [Compound 2e, N^2-(3-Chlorophenyl)-N^2-(4-fluorobenzyl)-N^4,N^4-dipropylpyrimidine-2,4,6-triamine] |  | > 60 µM | > 60 µM | > 60 µM | 59.3 µM |  | > 60 µM | > 60 µM | 
CCN(CC)CCCNc1cc(N)nc(N(Cc2ccc(F)cc2)c2cccc(OC)c2)n1 [Compound 2c, N^4-(3-(diethylamino)propyl)-N^2-(4-fluorobenzyl)-N^2-(3-methoxyphenyl)-pyrimidine-2,4,6-triamine] | 34.7 µM | 18.3 µM | 19.8 µM | 27.2 µM | 14.9 µM | 50.3 µM | 18 µM | 15 to 35 µM | EC50 ([4]; 48 h): 18.2 µM; folds more active than 3 ([4]; FaDu, 48 h of treatment, 2c vs 3): about 2.5 folds
CCN(CC)CCCNc1cc(N)nc(N(Cc2ccc(F)cc2)c2cccc(Cl)c2)n1 [Compound 2a, N^2-(3-chlorophenyl)-N^4-(3-(diethylamino)propyl)-N^2-(4-fluorobenzyl)pyrimidine-2,4,6-triamine] | 10.2 µM | 5.4 µM | 7.5 µM | 7.9 µM | 4.3 µM | 50.2 µM | 8.5 µM | 4 to 8 µM | EC50 ([1]; Homo sapiens, U-87 MG, 24 h): 22 µM; EC50 ([2]; Homo sapiens, MDA-MB-231, 24 h, 24 h): 18 µM; EC50 [3, 11]: 9.7 µM; EC50 ([4]; Homo sapiens, FaDu, 24 h): 26.2 µM; negative regulation of growth (cell viability, Figure 3) ([6]; 1, 10, 20, 50 μM, 24 h and 48 h, normal fibroblasts): only weakly significant and exclusively at high concentrations at 48 h; negative regulation of growth (cell viability, Figure 3) ([7]; 1, 10, 20, 50 μM, 24 h and 48 h, each tumor cell line): significant at various concentrations and times; EC50 ([7]; 24 h of treatment): 10 to 26 µM; EC50 ([7]; 48 h of treatment): 5 to 8 µM; fold more active than 1a ([7]; vs hit 1a (RDS 3442), all tested cell lines, 48 h of treatment): 4–13 fold
CCCN(CCC)c1cc(N)nc(N(Cc2ccc(F)cc2)c2ccc(Cl)cc2F)n1 [Compound 2f, N^2-(4-Chloro-2-fluorophenyl)-N^2-(4-fluorobenzyl)-N^4,N^4-dipropylpyrimidine-2,4,6-triamine] |  | 30 µM | > 60 µM | 58.3 µM | 45 µM |  | > 60 µM |  | EC50 ([3]; 48 h): 45.4 µM
CCCN(CCC)c1cc(N)nc(Nc2ccc(Cl)cc2F)n1 [Compound 1f, N^2-(4-Chloro-2-fluorophenyl)-N^4,N^4-dipropylpyrimidine-2,4,6-triamine] |  | 50 µM | > 60 µM | 58 µM | 55 µM | 98 µM | 67 µM | 50 to 75 µM | 
CCCN(CCC)c1cc(N)nc(Nc2cccc(Cl)c2)n1 [Compound 1e-HCl, N^2-(3-chlorophenyl)-N^4,N^4-dipropylpyrimidine-2,4,6-triamine hydrochloride] |  | 29.3 µM | 36.6 µM | 50.2 µM | 30.3 µM | > 60 µM | 39.8 µM |  | 
CCN(CC)CCCNc1cc(N)nc(Nc2cccc([N+](=O)[O-])c2)n1 [Compound 1d, N^4-(3-(Diethylamino)propyl)-N^2-(3-nitrophenyl)pyrimidine-2,4,6-triamine] |  | 40.4 µM | 54.9 µM | 49.2 µM | 35.3 µM | 97 µM | 46.8 µM |  | 
CN1CCN(c2cc(N)nc(Nc3cccc(Cl)c3)n2)CC1 [Compound 1g, N^2-(3-Chlorophenyl)-6-(4-methylpiperazin-1-yl)pyrimidine-2,4-diamine] |  | 60 µM | > 60 µM | 55 µM | 60 µM |  | 87 µM |  | 
CCCN(CCC)c1cc(N)nc(Nc2cccc(Cl)c2)n1 [Compound 1e, N^2-(3-chlorophenyl)-N^4,N^4-dipropylpyrimidine-2,4,6-triamine] |  |  |  |  |  |  |  |  | EC50 (colon carcinoma HT-29; 48 h): 28.5 µM; EC50 ([1]; 48 h): 45.3 µM; EC50 ([2]; 48 h): 34.2 µM; EC50 ([3]; 48 h): 24.7 µM; EC50 ([4]; 48 h): 29.7 µM; CC50 ([6]; 48 h): 68 µM; cytotoxic activity on normal somatic cells, not cytotoxic up to [6]: > 60 µM; EC50 ([7]; 48 h of treatment): 25 to 45 µM
CCN(CC)CCCNc1cc(N)nc(N(Cc2ccc(F)cc2)c2cccc([N+](=O)[O-])c2)n1 [Compound 2d, N^4-(3-(Diethylamino)propyl)-N^2-(4-fluorobenzyl)-N^2-(3-nitrophenyl)pyrimidine-2,4,6-triamine] | 25.2 µM | 12.7 µM | 30.1 µM | 17.3 µM | 10.3 µM | 55.2 µM | 20.5 µM |  | 
CCN(CC)CCCNc1cc(N)nc(Nc2cccc(F)c2)n1 [Compound 1b, N^4-(3-(Diethylamino)propyl)-N^2-(3-fluorophenyl)pyrimidine-2,4,6-triamine] |  | 29.8 µM | 47.3 µM | 35.7 µM | 20 µM | 88 µM | 43.4 µM |  | EC50 ([3]; 48 h): 20.3 µM
